Measured values published in US8163737B2 (Vertex Pharmaceuticals Incorporated, priority 2006, dated 2012).
Ends that are not written are not given here.

Experiments:
[1] = system: acute attacks of migraine; details: clinical trials; cited from earlier work
facial blood flow [2] = details: marmoset, electrical stimulation of the trigeminal ganglion; cited from earlier work
endogenous CGRP receptor = endogenous CGRP receptor (Homo sapiens, UniProt O60894+Q16602); test: CGRP functional antagonism using SK-N-MC-BLA (4C10), β-lactamase transcriptional reporter assay; type: cell-based; details: SK-N-MC (4C10) cells, inhibition of β-lactamase expression in the presence of 200 pM CGRP
Sequence of endogenous CGRP receptor (Q16602 23-461): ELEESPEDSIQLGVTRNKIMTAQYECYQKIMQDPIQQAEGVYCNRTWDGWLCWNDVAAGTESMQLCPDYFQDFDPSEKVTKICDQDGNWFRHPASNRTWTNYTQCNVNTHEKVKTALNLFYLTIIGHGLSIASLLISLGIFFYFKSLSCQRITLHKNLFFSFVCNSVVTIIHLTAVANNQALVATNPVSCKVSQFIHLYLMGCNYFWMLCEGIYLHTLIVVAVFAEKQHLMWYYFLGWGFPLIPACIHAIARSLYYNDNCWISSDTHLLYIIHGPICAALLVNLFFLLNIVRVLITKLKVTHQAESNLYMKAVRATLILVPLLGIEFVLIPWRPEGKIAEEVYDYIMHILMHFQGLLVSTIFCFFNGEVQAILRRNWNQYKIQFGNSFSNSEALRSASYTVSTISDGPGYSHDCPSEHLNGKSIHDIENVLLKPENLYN
Sequence of endogenous CGRP receptor (O60894 27-148): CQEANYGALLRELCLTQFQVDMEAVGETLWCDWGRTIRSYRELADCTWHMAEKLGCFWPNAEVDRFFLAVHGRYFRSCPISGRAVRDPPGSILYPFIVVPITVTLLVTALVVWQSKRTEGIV

[3] = target: T1, CGRP receptor (SK-N-MC membrane) (Homo sapiens, UniProt O60894+Q16602); test: I125-CGRP binding displacement assay on purified SK-N-MC membrane
T1 construct: Purified SK-N-MC membrane was purchased from Perkin Elmer; purchased Perkin Elmer; host or cells: SK-N-MC membrane
T1 sequence (Q16602 23-461): as the sequence (Q16602 23-461) above
T1 sequence (O60894 27-148): as the sequence (O60894 27-148) above
Method in brief: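 Displacement of I125-CGRP binding was measured by filtration and scintillation counting after 2 h room-temperature incubation with compound and SK-N-MC membranes (buffer pH 7.4, MgCl2, BSA, Tween). Percent displacement calculated against total binding and 1 uM cold CGRP nonspecific controls, then curve-fitted.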

facial blood flow [4] = details: rat, trigeminal ganglion stimulation; cited from earlier work
middle meningeal artery = details: rats, electrical stimulation of the dura mater, prior administration; cited from earlier work

Molecule | IC50 (endogenous CGRP receptor) | Ki [3] | further results
NCCCC[C@H](NC(=O)[C@@H](Cc1cc(Br)c(O)c(Br)c1)NC(=O)N1CCC(N2Cc3ccccc3NC2=O)CC1)C(=O)N1CCN(c2ccncc2)CC1 [BIBN4096BS] | – | – | efficacy in acute attacks of migraine [1]: effective in treating acute attacks of migraine; effect on increase in facial blood flow (facial blood flow [2]): blocked
CN1CCN(c2ccccc2[C@H]2S[C@](C)(CC(=O)N3CCC(n4c(=O)[nH]c5ncccc54)CC3)C(=O)N2CCC(C)(C)C)CC1 [Compound 380] | < 1000 nM | < 1000 nM | –
CC(C)CCN1C(=O)[C@H](CC(=O)N2CCC(N3Cc4ccccc4NC3=O)CC2)SC1c1ccccn1 (stereo partly drawn) [Compound 176] | 1000 to 5000 nM | < 1000 nM | –
CC(C)(C)CCN1C(=O)[C@H](CC(=O)N2CCC(N3CCc4ccccc4NC3=O)CC2)SC1c1cccc(F)c1N1CCC(F)(F)C1 (stereo partly drawn) [Compound 483] | > 5000 nM | < 1000 nM | –
CC(C)(C)CCN1C(=O)C(CC(=O)N2CCC(N3CCc4ccccc4NC3=O)CC2)SC1c1ccccc1N1CCC(O)CC1 (stereo not drawn) [Compound 150] | < 1000 nM | < 1000 nM | –
CC(C)(C)CCN1C(=O)[C@H](CC(=O)N2CCC(n3c(=O)[nH]c4ncccc43)CC2)SC1c1cccc(F)c1NCCN1CCCCC1 (stereo partly drawn) [Compound 532, 1-(1-(2-((5S)-2-(2-(2-(Piperidin-1-yl)ethylamino)-3-fluorophenyl)-3-(3,3-dimethylbutyl)-4-oxothiazolidin-5-yl)acetyl)piperidin-4-yl)-1H-imidazo[4,5-b]pyridin-2(3H)-one] | < 1000 nM | < 1000 nM | –
CN(C)[C@@H]1CCN(c2ccccc2C2SC(CC(=O)N3CCC(N4CCc5ccccc5NC4=O)CC3)C(=O)N2CCC(C)(C)C)C1 (stereo partly drawn) [Compound 405] | 1000 to 5000 nM | < 1000 nM | –
CC(C)(C)CCN1C(=O)[C@H](CC(=O)N2CCC(n3c(=O)[nH]c4ncccc43)CC2)SC1c1cccc(F)c1N1CCC(F)C1 (stereo partly drawn) [Compound 480] | 1000 to 5000 nM | < 1000 nM | –
CGRP (8-37): a peptide CGRP antagonist (VTHRLAGLLSRSGGVVKNNFVPTNVGSKAF; ends and bridges not checked; UniProt P06881 90-119, looked up, fragment) | – | – | effect on increased facial blood flow (facial blood flow [4]): inhibited; effect on increase of middle meningeal artery diameter (middle meningeal artery): blocked
CC(C)(C)CCN1C(=O)[C@H](CC(=O)N2CCC(n3c(=O)[nH]c4ncccc43)CC2)SC1c1ccccc1N1CCNCC1=O (stereo partly drawn) [Compound 527] | < 1000 nM | < 1000 nM | –
COc1ccc(C2SC(CC(=O)N3CCC(n4cc(-c5ccccc5)[nH]c4=O)CC3)C(=O)N2CCC(C)C)cc1 (stereo not drawn) [Compound 286] | 1000 to 5000 nM | > 5000 nM | –
N#Cc1ccccc1C1SC(CC(=O)N2CCC(N3CCc4ccccc4NC3=O)CC2)C(=O)N1CC1CCCCC1 (stereo not drawn) [Compound 175] | < 1000 nM | < 1000 nM | –
CC(C)(C)CCN1C(=O)[C@H](CC(=O)N2CCC(n3c(=O)[nH]c4ncccc43)CC2)S[C@H]1c1cccc(F)c1N1CCC(N)C1 (stereo partly drawn) [Compound 470] | < 1000 nM | < 1000 nM | –
O=C(CC1SC(c2ccccc2)N(c2ccccc2)C1=O)N1CCC(N2Cc3ccccc3NC2=O)CC1 (stereo not drawn) [Compound 187] | 1000 to 5000 nM | < 1000 nM | –
CCCCN1C(=O)C(CC(=O)N2CCC(N3Cc4ccccc4NC3=O)CC2)SC1c1ccccc1 (stereo not drawn) [Compound 107] | < 1000 nM | < 1000 nM | –
CC(C)CN1C(=O)[C@H](CC(=O)N2CCC(n3c(=O)[nH]c4ncccc43)CC2)S[C@H]1c1cccc(F)c1N1CCN(C(C)(C)C)CC1 [Compound 496] | < 1000 nM | < 1000 nM | –
O=C(CC1SC(c2ccccc2)N(CC2CCCO2)C1=O)N1CCC(N2Cc3ccccc3NC2=O)CC1 (stereo not drawn) [Compound 113] | < 1000 nM | < 1000 nM | –
CCN1CCC2(CC1)SC(CC(=O)N1CCC(N3CCc4ccccc4NC3=O)CC1)C(=O)N2CCC(C)(C)C (stereo not drawn) [Compound 288] | < 1000 nM | < 1000 nM | –

Continued, in another order:

IC50 (endogenous CGRP receptor) | Ki [3] | Molecule | further results
< 1000 nM | < 1000 nM | CC(C)CCN1C(=O)C(CC(=O)N2CCC(N3Cc4ccccc4NC3=O)CC2)SC1c1cccnc1 (stereo not drawn) [Compound 182] | –
< 1000 nM | < 1000 nM | COCCN1C(=O)[C@H](CC(=O)N2CCC(N3CCc4ccccc4NC3=O)CC2)SC1c1cccc(F)c1N1CCN(C(C)(C)C)CC1 (stereo partly drawn) [Compound 533] | –
< 1000 nM | < 1000 nM | CC(C)CCN1C(=O)[C@H](CC(=O)N2CCC(N3CCc4ccccc4NC3=O)CC2)SC1c1cccc(F)c1N1CCN(C(C)(C)C)CC1 (stereo partly drawn) [Compound 545] | –
< 1000 nM | < 1000 nM | CC(C)(C)N1CCN(c2c(F)cccc2C2S[C@@H](CC(=O)N3CCC(n4c(=O)[nH]c5ncccc54)CC3)C(=O)N2Cc2ccccc2)CC1 (stereo partly drawn) [Compound 540] | –
< 1000 nM | < 1000 nM | CC(C)(C)CCN1C(=O)C(CC(=O)N2CCC(N3Cc4ccccc4NC3=O)CC2)SC1c1ccccc1 (stereo not drawn) [Compound 93] | –
> 5000 nM | 1000 to 5000 nM | CC(C)(C)CCN1C(=O)[C@H](CC(=O)N2CCC(n3c(=O)[nH]c4ncccc43)CC2)SC1c1cccc(F)c1C1CCN(C(=O)OC(C)(C)C)CC1 (stereo partly drawn) [Compound 551] | –
< 1000 nM | < 1000 nM | CC(C)CCN1C(=O)C(CC(=O)N2CCC(N3Cc4ccccc4NC3=O)CC2)SC1c1cccc(F)c1 (stereo not drawn) [Compound 67] | –
< 1000 nM | < 1000 nM | CN1CCN(c2ccccc2C2SC(CC(=O)N3CCC(n4c(=O)[nH]c5ccccc54)CC3)C(=O)N2CCC(C)(C)C)CC1 (stereo not drawn) [Compound 302] | –
< 1000 nM | < 1000 nM | CC(C)(C)CCN1C(=O)[C@H](CC(=O)N2CCC(N3CCc4ccccc4NC3=O)CC2)SC1c1cccc(F)c1N1CCC(N2CCCCC2)CC1 (stereo partly drawn) [Compound 550] | –
< 1000 nM | < 1000 nM | CC(C)(C)CCN1C(=O)[C@H](CC(=O)N2CCC(N3Cc4ccccc4NC3=O)CC2)S[C@H]1c1cccc(F)c1N1CCC(O)C1 (stereo partly drawn) [Compound 469] | –
< 1000 nM | < 1000 nM | CC(C)(C)CCN1C(=O)C(CC(=O)N2CCC(N3Cc4ccccc4NC3=O)CC2)SC1c1ccccc1-n1ccnc1 (stereo not drawn) [Compound 60] | –
< 1000 nM | < 1000 nM | COCCN1C(=O)[C@H](CC(=O)N2CCC(n3c(=O)[nH]c4ncccc43)CC2)SC1c1cccc(F)c1N1CCN(C(C)(C)C)CC1 (stereo partly drawn) [Compound 535] | –
< 1000 nM | < 1000 nM | CCCCN1CCN(c2ccccc2C2SC(CC(=O)N3CCC(N4CCc5ccccc5NC4=O)CC3)C(=O)N2CCC(C)(C)C)CC1 (stereo not drawn) [Compound 365] | –
1000 to 5000 nM | < 1000 nM | O=C(CC1SC(c2ccccc2)N(CCc2ccncc2)C1=O)N1CCC(N2Cc3ccccc3NC2=O)CC1 (stereo not drawn) [Compound 236] | –
< 1000 nM | < 1000 nM | CN1CCN(c2ccc(F)cc2[C@@H]2S[C@@H](CC(=O)N3CCC(n4c(=O)[nH]c5ncccc54)CC3)C(=O)N2CCC(C)(C)C)CC1 [Compound 394] | –
